Measured values as given in patent US9695195B2, “5-HT3 receptor antagonists” (Takeda Pharmaceutical Company Limited, priority 2012, dated 2017).
Structures can show the parent of a compound that is named as a salt.

target: 5HT3a receptor (Homo sapiens (Human), UniProt P46098); assay: Inhibition of Ca flux activity of 5HT3 in vitro assay; type: cell-based; settings: 5HT3a expressed in HEK-293T cells; 5HT 216 nM; approximate values
Method: The 5HT3 antagonist activity of the compounds of the invention was determined by measuring the ability of the compounds to inhibit the calcium flux activity of […] receptor expressed in HEK-293T cells. HEK-293T cells were transfected with the 5HT3a expression construct using Xtreme Gene 9 (Roche) in 150 mm tissue culture treated plates and incubated for 24 hours at 37° C. Cells were then split and plated at a density of 60K cells/well in poly-lysine coated, black 96-well plates with clear bottoms (BD BioSciences) and incubated overnight at 37° C. Growth media was removed and cells loaded with 200 uL calcium indicator dye in HBSS containing 20 mM HEPES (Calcium 5 Assay kit, Molecular Devices) and incubated at 37° C. for 1 hour. While cells were incubating, the 10× antagonist and agonist/antagonist addition plates were made. For 10× antagonist plate: half log serial dilutions (final concentrations range from 10^−7 through 10^−10 with the bottom well a negative, no ligand control) were made from test compounds in DMSO at a 1000× concentration and then diluted to 10× in HBSS/20 mM HEPES. For addition plate: 5HT was diluted to 100× in HBSS/20 mM HEPES (final concentration in the assay-216 nM) and 15 uL was added to each well of the addition plate, 15 uL of 10× compound was also added to the addition plate, and finally 120 uL of HBSS/20 mM HEPES (for a total of 150 uL). Cells were then removed from the incubator and equilibrated to room temperature for 10 minutes, then 22.5 uL of 10× test compounds were added in triplicate to the plates and incubated at room temperature for 10 minutes (Tropisetron was used as a positive control in every assay). Test plate and addition plate were loaded into the FlexStation III (Molecular Devices), and using the fluidics, 22.5 uL compound additions were made (at t=˜17 seconds), and fluorescence was measured for 90 seconds, reading every 2.2 seconds. Data sets were analyzed as max minus min using Software Max Pro (Molecular Devices). IC50 curves were generated using non-linear regression in GraphPad Prism.

Chain of 5HT3a receptor (P46098 24-478): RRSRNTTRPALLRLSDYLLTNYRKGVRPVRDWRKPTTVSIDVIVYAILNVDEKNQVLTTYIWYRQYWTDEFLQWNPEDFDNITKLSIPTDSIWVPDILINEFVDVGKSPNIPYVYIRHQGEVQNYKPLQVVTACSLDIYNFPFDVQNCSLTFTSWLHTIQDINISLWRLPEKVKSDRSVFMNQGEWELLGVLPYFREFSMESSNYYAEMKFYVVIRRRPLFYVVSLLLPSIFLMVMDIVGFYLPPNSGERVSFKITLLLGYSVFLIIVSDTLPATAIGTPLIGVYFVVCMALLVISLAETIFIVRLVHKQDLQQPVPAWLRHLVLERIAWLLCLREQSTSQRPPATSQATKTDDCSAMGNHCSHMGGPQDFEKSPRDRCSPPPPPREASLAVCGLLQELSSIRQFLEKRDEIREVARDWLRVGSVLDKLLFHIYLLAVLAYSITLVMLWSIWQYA

SMILES	IC50
CN1[C@@H]2CC[C@H]1CC(OC(=O)c1cn(CC(F)(F)F)c3ccc(F)cc13)C2 (stereo partly drawn) [Compound 1, (1R,3R,5S)-8-methyl-8-aza-bicyclo[3.2.1]octan-3-yl 5-fluoro-1-(2,2,2-trifluoro-ethyl)-1H-indole-3-carboxylate; 2,2,2-trifluoroacetate]	2.13 nM
CN1[C@@H]2CCC[C@H]1CC(OC(=O)c1nn(S(C)(=O)=O)c3ccccc13)C2 (stereo partly drawn) [Compound 4, (1R,3R,5S)-9-methyl-9-aza-bicyclo[3.3.1]nonan-3-yl 1-(methylsulfonyl)-1H-indazole-3-carboxylate, 2,2,2-trifluoroacetate]	1.4 nM
O=C(NC1CC2COCC(C1)N2)c1cn(CC(F)(F)F)c2ccc(F)cc12 [Compound 6, N-((1R,5S,7S)-3-oxa-9-aza-bicyclo[3.3.1]nonan-7-yl)-5-fluoro-1-(2,2,2-trifluoro-ethyl)-1H-indole-3-carboxamide, 2,2,2-trifluoroacetate]	2.33 nM
CN1[C@@H]2CC[C@H]1C[C@@H](OC(=O)c1c(Cl)n(S(C)(=O)=O)c3ccccc13)C2 [Compound 13, (1R,3R,5S)-8-methyl-8-aza-bicyclo[3.2.1]octan-3-yl 2-chloro-1-(methylsulfonyl)-1H-indole-3-carboxylate, 2,2,2-trifluoroacetate]	0.93 nM
O=C(OC1CC2CCC(C1)N2)c1cn(CC(F)(F)F)c2ccccc12 [Compound 14, (1R,3R,5S)-8-azabicyclo[3.2.1] octan-3-yl 1-(2,2,2-trifluoroethyl)-1H-indole-3-carboxylate, 2,2,2-trifluoroacetate]	3.71 nM
Cc1c(C(=O)OC2C[C@H]3CC[C@@H](C2)N3C)c2ccccc2n1CCF (stereo partly drawn) [Compound 15, (1R,3R,5S)-8-methyl-8-aza-bicyclo[3.2.1]octan-3-yl 1-(2-fluoroethyl)-2-methyl-1H-indole-3-carboxylate, 2,2,2-trifluoroacetate]	0.53 nM
CN1[C@@H]2CCC[C@H]1CC(OC(=O)c1nn(CCF)c3ccccc13)C2 (stereo partly drawn) [Compound 16, (1R,3R,5S)-9-methyl-9-aza-bicyclo[3.3.1]nonan-3-yl 1-(2-fluoroethyl)-1H-indazole-3-carboxylate, 2,2,2-trifluoro-acetate; 2,2,2-trifluoroacetate]	3.25 nM
CN1[C@@H]2CC[C@H]1CC(OC(=O)c1nn(CC(F)(F)F)c3ccccc13)C2 (stereo partly drawn) [Compound 17, (1R,3R,5S)-8-methyl-8-aza-bicyclo[3.2.1]octan-3-yl 1-(2,2,2-trifluoroethyl)-1H-indazole-3-carboxylate, 2,2,2-trifluoroacetate]	4.39 nM
CN1[C@@H]2CC[C@H]1CC(NC(=O)c1cn(S(C)(=O)=O)c3ccc(F)cc13)C2 (stereo partly drawn) [Compound 18, 5-fluoro-N-((1R,3R,5S)-8-methyl-8-azabicyclo[3.2.1]octan-3-yl)-1-(methylsulfonyl)-1H-indole-3-carboxamide, 2,2,2-trifluoroacetate]	4.06 nM
CS(=O)(=O)n1cc(C(=O)O[C@H]2C[C@H]3COC[C@@H](C2)N3)c2cc(F)ccc21 [Compound 19, (1R,5S,7S)-3-oxa-9-aza-bicyclo[3.3.1]nonan-7-yl 5-fluoro-1-(methylsulfonyl)-1H-indole-3-carboxylate, 2,2,2-trifluoroacetate]	7.72 nM
O=C(OC1C[C@H]2COC[C@@H](C1)N2)c1cn(-c2ncccn2)c2ccccc12 (stereo partly drawn) [Compound 25, (1R,5S,7S)-3-oxa-9-aza-bicyclo[3.3.1]nonan-7-yl 1-(pyrimidin-2-yl)-1H-indole-3-carboxylate, 2,2,2-trifluoro-acetate]	3.88 nM
CN1[C@@H]2CC[C@H]1CC(OC(=O)c1cn(S(C)(=O)=O)c3ccccc13)C2 (stereo partly drawn) [Compound 26, (1R,3R,5S)-8-methyl-8-aza-bicyclo[3.2.1]octan-3-yl 1-(methylsulfonyl)-1H-indole-3-carboxylate, 2,2,2-trifluoro-acetate]	0.54 nM
CN1[C@@H]2CC[C@H]1C[C@H](OC(=O)c1cn(CC(F)F)c3ccc(F)cc13)C2 [Compound 27, (1R,3R,5S)-8-methyl-8-aza-bicyclo[3.2.1]octan-3-yl 1-(2,2-difluoroethyl)-5-fluoro-1H-indole-3-carboxylate, 2,2,2-trifluoroacetate]	0.89 nM
CN1[C@@H]2CC[C@H]1C[C@H](OC(=O)c1c3n(c4ccccc14)CCO3)C2 [Compound 28, (1R,3R,5S)-8-methyl-8-aza-bicyclo[3.2.1]octan-3-yl 2,3-dihydrooxazolo[3.2-a] indole-9-carboxylate, 2,2,2-trifluoroacetate]	1.08 nM
CN1[C@@H]2CCC[C@H]1CC(OC(=O)c1c(Cl)n(CCF)c3ccccc13)C2 (stereo partly drawn) [Compound 30, (1R,3R,5S)-9-methyl-9-aza-bicyclo[3.3.1]nonan-3-yl 2-chloro-1-(2-fluoroethyl)-1H-indole-3-carboxylate, 2,2,2-trifluoroacetate]	0.2 nM
CN1[C@@H]2COC[C@H]1C[C@@H](OC(=O)c1cn(CC(F)(F)F)c3ccc(F)cc13)C2 [Compound 32, (1R,5S,7S)-9-methyl-3-oxa-9-azabicyclo[3.3.1]nonan-7-yl 5-fluoro-1-(2,2,2-trifluoroethyl)-1H-indole-3-carboxylate, 2,2,2-trifluoroacetate]	1.38 nM
O=C(OC1C[C@H]2COC[C@@H](C1)N2CCF)c1cn(CC(F)F)c2ccc(F)cc12 (stereo partly drawn) [Compound 33, (1R,5S,7S)-9-(2-fluoroethyl)-3-oxa-9-azabicyclo[3.3.1] nonan-7-yl 1-(2,2-difluoroethyl)-5-fluoro-1H-indole-3-carboxylate, 2,2,2-trifluoroacetate]	14.4 nM
CN1[C@@H]2CCC[C@H]1CC(OC(=O)c1cn(S(C)(=O)=O)c3ccc(F)cc13)C2 (stereo partly drawn) [Compound 34, (1R,3R,5S)-9-methyl-9-aza-bicyclo[3.3.1]nonan-3-yl 5-fluoro-1-(methylsulfonyl)-1H-indole-3-carboxylate, 2,2,2-trifluoroacetate]	0.74 nM
CN1[C@@H]2COC[C@H]1C[C@@H](OC(=O)c1cn(-c3ccc(F)nn3)c3ccccc13)C2 [Compound 137, (1R,5S,7s)-9-methyl-3-oxa-9-azabicyclo[3.3.1]nonan-7-yl 1-(6-fluoropyridazin-3-yl)-1H-indole-3-carboxylate]	0.681 nM
O=C(OC1CC2COCC(C1)N2)c1cn(-c2ccsn2)c2ccccc12 [Compound 145, (1R,5S,7s)-3-oxa-9-aza-bicyclo[3.3.1]nonan-7-yl 1-(iso-thiazol-3-yl)-1H-indole-3-carboxylate, 2,2,2-trifluoroacetic acid salt]	2.71 nM
O=C(OC1CC2COCC(C1)N2)c1cn(-c2ccns2)c2ccccc12 [Compound 155, (1R,5S,7s)-3-oxa-9-aza-bicyclo[3.3.1]nonan-7-yl 1-(iso-thiazol-5-yl)-1H-indole-3-carboxylate, 2,2,2-trifluoroacetic acid salt]	1.26 nM
CN1[C@@H]2COC[C@H]1CC(OC(=O)c1cn(-c3cnccn3)c3ccccc13)C2 (stereo partly drawn) [Compound 181, (1R,5S,7S)-9-methyl-3-oxa-9-azabicyclo[3.3.1]nonan-7-yl 1-(pyrazin-2-yl)-1H-indole-3-carboxylate]	1.1 nM
CN1[C@@H]2COC[C@H]1CC(OC(=O)c1cn(-c3ccsn3)c3ccccc13)C2 (stereo partly drawn) [Compound 182, (1R,5S,7S)-9-methyl-3-oxa-9-azabicyclo[3.3.1]nonan-7-yl 1-(isothiazol-3-yl)-1H-indole-3-carboxylate]	1.62 nM
CN1[C@@H]2COC[C@H]1C[C@@H](OC(=O)c1cn(-c3cncs3)c3ccccc13)C2 [Compound 183, (1R,5S,7S)-9-methyl-3-oxa-9-azabicyclo[3.3.1]nonan-7-yl 1-(thiazol-5-yl)-1H-indole-3-carboxylate]	1.27 nM
CN1[C@@H]2COC[C@H]1CC(OC(=O)c1cn(-c3cnc(F)cn3)c3ccccc13)C2 (stereo partly drawn) [Compound 184, (1R,5S,7S)-9-methyl-3-oxa-9-aza-bicyclo[3.3.1]nonan-7-yl 1-(5-fluoropyrazin-2-yl)-1H-indole-3-carboxylate]	1.25 nM
N#CCn1cc(C(=O)OC2C[C@H]3COC[C@@H](C2)N3)c2ccccc21 (stereo partly drawn) [Compound 187, (1R,5S,7S)-3-oxa-9-aza-bicyclo[3.3.1]nonan-7-yl 1-(cyanomethyl)-1H-indole-3-carboxylate]	1.18 nM
CN1[C@@H]2COC[C@H]1CC(OC(=O)c1cn(-c3ncccn3)c3ccccc13)C2 (stereo partly drawn) [Compound 188, (1R,5S,7S)-9-methyl-3-oxa-9-azabicyclo[3.3.1]nonan-7-yl 1-(pyrimidin-2-yl)-1H-indole-3-carboxylate]	1.75 nM
CN1[C@@H]2COC[C@H]1CC(OC(=O)c1cn(-c3cncnc3)c3ccccc13)C2 (stereo partly drawn) [Compound 189, (1R,5S,7S)-9-methyl-3-oxa-9-azabicyclo[3.3.1]nonan-7-yl 1-(pyrimidin-5-yl)-1H-indole-3-carboxylate]	0.46 nM
